Measured values reported in US20100041089A1, “IMPROVED METHOD FOR DETECTING CHEMICAL […]” (priority 2006, published 2010).

Tested on: yeast genes (expressed mRNA)
Experiment: DNA chip measurement of expressed mRNA of yeast genes after culture with a toxic chemical substance
Format: cell-based, Saccharomyces cerevisiae S288C
Details: for level of expressed mRNA in the presence of chemical substance / level in the absence of chemical substance: cultured two hours with the chemical substance; for The level of expressed mRNA in the presence of chemical substance/The level of expressed mRNA in the absence of chemical substance: cultured two hours with substance
Procedure: Yeast (Saccharomyces cerevisiae S288C (a SUC2mal mel gap2 CUP1)) were cultured at 25° C. on YPD medium (yeast extract 1%, polypeptone 2%, glucose 2%). One of toxic chemical substances was added to the cell at logarithmic growth phase, and the cell was further cultured for two hours. Cell was cultured without any chemical substance in the same condition, and was used as a control. Concentrations of the chemical substances were defined to inhibit the growth of the yeast but not lead to death.
After the completion of cultivation, the culture was centrifuged to collect the cells. To the cells, sodium acetate buffer (50 mM sodium acetate, 10 mM EDTA, 1% SDS) was added, and the mixture was shaken at 65° C. for five minutes, followed by returning to room temperature, and obtaining the supernatant, which procedure was repeated two times. To the supernatant, ½ amount of a solution of phenol/chloroform (1:1) was added, and the mixture was centrifuged to give a supernatant, an equal amount of chloroform was added, and the mixture was centrifuged to give a supernatant. To the supernatant, an equal amount of isopropanol containing 0.3 M sodium acetate was added, and the mixture was allowed to stand at room temperature for 30 minutes, after which the mixture was centrifuged to give sediment of the whole RNAs. Seventy % ethanol was added to the sediment, and the mixture was again centrifuged to give sediment, which was then dried and dissolved in water. mRNA was isolated from the whole RNAs as followings. In view of the fact that a poly A chain is attached to the 3′ terminus of mRNA, a polynucleotide having a poly T structure which was immobilized on the surface of latex beads was used to trap the mRNA, and then the mRNA was washed and eluted with spine column (Oligotex-dT30<Super>mRNA Purification Kit, Takara). Reverse transcription of the mRNA was conducted with a reverse transcriptase (Super Script II Reverse Transcriptase; catalogue No. 18064-014, GibcoBRL) using fluorescence-labeled nucleotides to give cDNAs that were introduced with Cy3-dUTP or Cy5-dUTP during the reverse transcription.
The labeled cDNAs were dissolved in TE buffer (10 mM Tris-HCl/1 mM EDTA, pH 8.0), and the solution was dropped on the DNA chip containing the whole genes of yeast (DNA Chip Research Inc. Japan) so that the cDNAs were hybridized on the DNA chip at 65° C. for over 12 hours. The fluoresces intensity of the DNA chip was read with a scanner, and the ratio relative to the fluorescence intensity resulting from the absence of chemical substance was estimated as the following, which is shown in Tables 1 to 9.
In the Tables, “Intensity” indicated in the rightmost column is a value of the level of expressed mRNA of each gene in control cells as divided by the average level of the expressions of the whole genes. A gene of which mRNA level is lower in control, and is higher in cases of addition of chemical substance, is especially useful in the detection of toxic substances.
Here, when a ratio of an amount of mRNA expressed in the presence of the chemical substance to an amount of mRNA expressed in the absence of the chemical substance is two or more, then it is considered significant.

[Cl][Hg][Cl] [(3), HgCl2]
level of expressed mRNA in the presence of chemical substance / level in the absence of chemical substance (yeast gene YJL097W): 3.7 | The level of expressed mRNA in the presence of chemical substance/The level of expressed mRNA in the absence of chemical substance (yeast gene YJL151C): 3.2 | The level of expressed mRNA in the presence of chemical substance/The level of expressed mRNA in the absence of chemical substance (yeast gene YJL152W): 1.8 | The level of expressed mRNA in the presence of chemical substance/The level of expressed mRNA in the absence of chemical substance (yeast gene YJL161W): 1.5 | The level of expressed mRNA in the presence of chemical substance/The level of expressed mRNA in the absence of chemical substance (yeast gene YJL171C): 2.8 | The level of expressed mRNA in the presence of chemical substance/The level of expressed mRNA in the absence of chemical substance (yeast gene YJR008W): 1.2 | level of expressed mRNA in the presence of chemical substance / level in the absence of chemical substance (yeast gene YJR030C): 0.9 | The level of expressed mRNA in the presence of chemical substance/The level of expressed mRNA in the absence of chemical substance (yeast gene YJR054W): 0.3 | level of expressed mRNA in the presence of chemical substance / level in the absence of chemical substance (yeast gene YKL051W): 4.7 | The level of expressed mRNA in the presence of chemical substance/The level of expressed mRNA in the absence of chemical substance (yeast gene YKL071W): 5.4 | The level of expressed mRNA in the presence of chemical substance/The level of expressed mRNA in the absence of chemical substance (yeast gene YKL086W): 2.4 | level of expressed mRNA in the presence of chemical substance / level in the absence of chemical substance (yeast gene YKL097C): 0.6 | level of expressed mRNA in the presence of chemical substance / level in the absence of chemical substance (yeast gene YKL100C): 5.0 | The level of expressed mRNA in the presence of chemical substance/The level of expressed mRNA in the absence of chemical substance (yeast gene YKL151C): 1.7 | The level of expressed mRNA in the presence of chemical substance/The level of expressed mRNA in the absence of chemical substance (yeast gene YKL153W): 2.0 | The level of expressed mRNA in the presence of chemical substance/The level of expressed mRNA in the absence of chemical substance (yeast gene YKL195W): 0.4 | level of expressed mRNA in the presence of chemical substance / level in the absence of chemical substance (yeast gene YKR040C): 2.4 | The level of expressed mRNA in the presence of chemical substance/The level of expressed mRNA in the absence of chemical substance (yeast gene YKR091W): 0.9 | The level of expressed mRNA in the presence of chemical substance/The level of expressed mRNA in the absence of chemical substance (yeast gene YLR054C): 0.4 | The level of expressed mRNA in the presence of chemical substance/The level of expressed mRNA in the absence of chemical substance (yeast gene YLR149C): 3.4 | The level of expressed mRNA in the presence of chemical substance/The level of expressed mRNA in the absence of chemical substance (yeast gene YLR152C): 1.1 | The level of expressed mRNA in the presence of chemical substance/The level of expressed mRNA in the absence of chemical substance (yeast gene YLR194C): 1.3 | level of expressed mRNA in the presence of chemical substance / level in the absence of chemical substance (yeast gene YLR226W): 0.3 | The level of expressed mRNA in the presence of chemical substance/The level of expressed mRNA in the absence of chemical substance (yeast gene YLR324W): 0.9 | level of expressed mRNA in the presence of chemical substance / level in the absence of chemical substance (yeast gene YLR338W): 1.4 | The level of expressed mRNA in the presence of chemical substance/The level of expressed mRNA in the absence of chemical substance (yeast gene YLR350W): 3.2 | The level of expressed mRNA in the presence of chemical substance/The level of expressed mRNA in the absence of chemical substance (yeast gene YLR387C): 0.8 | level of expressed mRNA in the presence of chemical substance / level in the absence of chemical substance (yeast gene YLR392C): 0.8 | level of expressed mRNA in the presence of chemical substance / level in the absence of chemical substance (yeast gene YLR415C): 6.7 | level of expressed mRNA in the presence of chemical substance / level in the absence of chemical substance (yeast gene YLR427W): 0.2 | The level of expressed mRNA in the presence of chemical substance/The level of expressed mRNA in the absence of chemical substance (yeast gene YLR460C): 2.0 | level of expressed mRNA in the presence of chemical substance / level in the absence of chemical substance (yeast gene YML013W): 0.4 | level of expressed mRNA in the presence of chemical substance / level in the absence of chemical substance (yeast gene YML029W): 1.3 | level of expressed mRNA in the presence of chemical substance / level in the absence of chemical substance (yeast gene YML041C): 0.6 | level of expressed mRNA in the presence of chemical substance / level in the absence of chemical substance (yeast gene YML079W): 1.1 | The level of expressed mRNA in the presence of chemical substance/The level of expressed mRNA in the absence of chemical substance (yeast gene YML117W): 0.9 | The level of expressed mRNA in the presence of chemical substance/The level of expressed mRNA in the absence of chemical substance (yeast gene YMR009W): 0.5 | The level of expressed mRNA in the presence of chemical substance/The level of expressed mRNA in the absence of chemical substance (yeast gene YMR067C): 1.1 | level of expressed mRNA in the presence of chemical substance / level in the absence of chemical substance (yeast gene YMR068W): 0.8 | level of expressed mRNA in the presence of chemical substance / level in the absence of chemical substance (yeast gene YMR071C): 1.1 | The level of expressed mRNA in the presence of chemical substance/The level of expressed mRNA in the absence of chemical substance (yeast gene YMR090W): 2.3 | The level of expressed mRNA in the presence of chemical substance/The level of expressed mRNA in the absence of chemical substance (yeast gene YMR095C): 1.6 | The level of expressed mRNA in the presence of chemical substance/The level of expressed mRNA in the absence of chemical substance (yeast gene YMR097C): 0.7 | The level of expressed mRNA in the presence of chemical substance/The level of expressed mRNA in the absence of chemical substance (yeast gene YMR102C): 1.1 | The level of expressed mRNA in the presence of chemical substance/The level of expressed mRNA in the absence of chemical substance (yeast gene YMR107W): 1.7 | level of expressed mRNA in the presence of chemical substance / level in the absence of chemical substance (yeast gene YMR160W): 1.2 | The level of expressed mRNA in the presence of chemical substance/The level of expressed mRNA in the absence of chemical substance (yeast gene YMR180C): 1.0 | The level of expressed mRNA in the presence of chemical substance/The level of expressed mRNA in the absence of chemical substance (yeast gene YMR184W): 1.0 | The level of expressed mRNA in the presence of chemical substance/The level of expressed mRNA in the absence of chemical substance (yeast gene YMR191W): 1.9 | The level of expressed mRNA in the presence of chemical substance/The level of expressed mRNA in the absence of chemical substance (yeast gene YMR295C): 1.2 | The level of expressed mRNA in the presence of chemical substance/The level of expressed mRNA in the absence of chemical substance (yeast gene YMR316W): 1.1 | level of expressed mRNA in the presence of chemical substance / level in the absence of chemical substance (yeast gene YNL026W): 1.3 | The level of expressed mRNA in the presence of chemical substance/The level of expressed mRNA in the absence of chemical substance (yeast gene YNL044W): 2.3
